# Results from patent US20060217395A1, “Combinations of paroxetine and 4- (s) - (4-acetyl-piperazin-1-yl) -2- (r)- (4-fluoro-2-methyl- phenyl -piperidine-1-carboxylic acid [1- (r) (3,5-bis-trifluoromethyl-phenyl) -ethyl] methylamide for treatment of depression and / or anxiety” (GLAXO GROUP LIMITED, priority 2003, published 2006).
# Where a name gives a salt, the structure may show the parent alone.
# Tested on: mongolian gerbils
# Assay: gerbil social interaction model (social stress assay)
# Type: in vivo
# Conditions: one hour after administration
# Protocol: Paroxetine hydrochloride hemihydrate (0.03 mg/kg p.o of the paroxetine measured as the free base), 4-(S)-(4-Acetyl-piperazin-1-yl)-2-(R)-(4-fluoro-2-methyl-phenyl)-piperidine-1-carboxylic acid [1-(R)-(3,5-bis-trifluoromethyl-phenyl)-ethyl]-methylamide methansulphonate (hereinafter compound A) (0.03 mg/kg i.p of the compound A measured as the free base) and a combination of paroxetine (0.03 mg/kg p.o. of the paroxetine measured as the free base) and compound A (0.03 mg/kg i.p. of the compound A measured as the free base) were administered independently in mongolian gerbils to assess the effect on time spent in active social interactions.
# The results obtained one hour after administration, expressed as a percentage variation of the time spent in active social interactions by each animal in respect to the value obtained by treatment of control animals, are summarised in table 1.
compound,measurement,setting,value
"CC(=O)N1CCN([C@H]2CCN(C(=O)N(C)[C@H](C)c3cc(C(F)(F)F)cc(C(F)(F)F)c3)[C@@H](c3ccc(F)cc3C)C2)CC1.CS(=O)(=O)O [Compound A, 4-(S)-(4-Acetyl-piperazin-1-yl)-2-(R)-(4-fluoro-2-methyl-phenyl)-piperidine-1-carboxylic acid [1-(R)-(3,5-bis-trifluoromethyl-phenyl)-ethyl]-methylamide methansulphonate]",% variation of the time spent in active social interactions in respect to control animals,0.03 mg/kg i.p. (measured as the free base),20.7%
"Fc1ccc([C@@H]2CCNC[C@H]2COc2ccc3c(c2)OCO3)cc1 [Paroxetine hydrochloride hemihydrate, (−)trans-4-(4′-fluorophenyl)3-(3′-4′-methylenedioxyphenoxymethyl) piperidine]",% variation of the time spent in active social interactions in respect to control animals,0.03 mg/kg p.o. (measured as the free base),−2.4%
